Source: US20070117770A1, “Human ribosomal DNA (rDNA) and ribosomal RNA (rRNA) nucleic acids and uses thereof” (Cylene Pharmaceuticals, Inc., priority 2005, published 2007)

Tests used:
Test in all cases: Protein kinase inhibition assay
Type in all cases: biochemical
SRPK2(h) = SRPK2(h) (Homo sapiens, UniProt P78362); conditions: read-out: percent residual activity of SRPK2(h)
Experimental: (§1) Certain compounds were tested for activity in protein kinase inhibition assays. All substrates were dissolved and diluted to working stocks in de-ionized water, apart from histone H1 (10× working stock in 20 mM MOPS pH 7.0), PDKtide (10× working stock in 50 mM Tris pH 7.0) ATF2 (which is typically stored at a 20× working stock in 50 mM Tris pH 7.5, 150 mM NaCl, 0.1 mM EGTA, 0.03% Brij-35, 50% glycerol, 1 mM benzamidine, 0.2 mM PMSF and 0.1% R-mercaptoethanol), KKLNRTLSFAEPG (SEQ ID NO:203) and RRRLSFAEPG (SEQ ID NO:204) (50 mM HEPES pH 7.4) and GGEEEEYFELVKKKK (SEQ ID NO:205) (20 mM MOPS pH 7.0). All kinases were pre-diluted to a 10× working concentration prior to addition into the assay. The composition of the dilution buffer for each kinase is detailed below.

CK1γ3(h) = CK1γ3(h) (Homo sapiens, UniProt Q9Y6M4); conditions: read-out: percent residual activity of CK1γ3(h)
Experimental: as §1

MLK1(h) = MLK1(h) (Homo sapiens, UniProt P80192); conditions: read-out: percent residual activity of MLK1(h)
Experimental: as §1

EGFR(T790M, L858R)(h) = EGFR(T790M, L858R)(h) (Homo sapiens, UniProt P00533, L858R/T790M); conditions: read-out: percent residual activity of EGFR(T790M, L858R)(h)
Experimental: as §1

PAK3(h) = PAK3(h) (Homo sapiens, UniProt O75914); conditions: read-out: percent residual activity of PAK3(h)
Experimental: as §1

Rsk4(h) = Rsk4(h) (Homo sapiens, UniProt Q9UK32); conditions: read-out: percent residual activity of Rsk4(h)
Experimental: as §1

BrSK2(h) = BrSK2(h) (Homo sapiens, UniProt Q8IWQ3); conditions: read-out: percent residual activity of BrSK2(h)
Experimental: as §1

ARK5(h) = ARK5(h) (Homo sapiens, UniProt O60285); conditions: read-out: percent residual activity of ARK5(h)
Experimental: as §1

eEF-2K(h) = eEF-2K(h) (Homo sapiens, UniProt O00418); conditions: read-out: percent residual activity of eEF-2K(h)
Experimental: as §1

NEK3(h) = NEK3(h) (Homo sapiens, UniProt P51956); conditions: read-out: percent residual activity of NEK3(h)
Experimental: as §1

FAK(h) = FAK(h) (Homo sapiens, UniProt Q05397); conditions: read-out: percent residual activity of FAK(h)
FAK(h), sequence (Q05397 whole entry): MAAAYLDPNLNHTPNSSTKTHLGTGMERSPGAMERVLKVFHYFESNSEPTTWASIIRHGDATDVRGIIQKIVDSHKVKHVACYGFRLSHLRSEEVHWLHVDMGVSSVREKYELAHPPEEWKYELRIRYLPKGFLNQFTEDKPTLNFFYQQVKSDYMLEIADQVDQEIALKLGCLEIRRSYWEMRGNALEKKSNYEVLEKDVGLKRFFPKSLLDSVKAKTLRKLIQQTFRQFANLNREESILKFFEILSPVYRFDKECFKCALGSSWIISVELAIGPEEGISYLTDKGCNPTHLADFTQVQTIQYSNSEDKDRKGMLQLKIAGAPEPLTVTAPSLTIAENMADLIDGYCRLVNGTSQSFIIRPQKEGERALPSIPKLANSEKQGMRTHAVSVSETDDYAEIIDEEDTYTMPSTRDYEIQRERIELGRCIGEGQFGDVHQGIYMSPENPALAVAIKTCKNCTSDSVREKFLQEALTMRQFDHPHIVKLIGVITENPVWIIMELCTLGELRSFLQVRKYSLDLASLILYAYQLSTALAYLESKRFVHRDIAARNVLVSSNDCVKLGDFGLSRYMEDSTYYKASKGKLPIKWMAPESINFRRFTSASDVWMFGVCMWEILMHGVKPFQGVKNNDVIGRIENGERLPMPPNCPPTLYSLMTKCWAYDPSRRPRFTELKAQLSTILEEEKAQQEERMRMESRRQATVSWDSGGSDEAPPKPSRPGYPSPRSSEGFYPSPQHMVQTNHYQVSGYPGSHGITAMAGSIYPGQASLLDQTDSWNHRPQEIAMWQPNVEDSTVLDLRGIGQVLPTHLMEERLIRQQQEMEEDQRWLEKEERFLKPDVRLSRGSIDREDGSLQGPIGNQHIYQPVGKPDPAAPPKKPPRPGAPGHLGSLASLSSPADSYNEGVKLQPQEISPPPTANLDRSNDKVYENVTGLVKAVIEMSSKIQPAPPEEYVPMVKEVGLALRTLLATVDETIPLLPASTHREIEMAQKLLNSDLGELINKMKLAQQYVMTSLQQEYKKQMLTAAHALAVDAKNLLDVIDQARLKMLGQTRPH
Experimental: as §1

SAPK2a(T106M)(h) = SAPK2a(T106M)(h) (Homo sapiens, UniProt Q16539, T106M); conditions: read-out: percent residual activity of SAPK2a(T106M)(h)
Experimental: as §1

EphA8(h) = EphA8(h) (Homo sapiens, UniProt P29322); conditions: read-out: percent residual activity of EphA8(h)
EphA8(h), sequence (P29322 28-1005): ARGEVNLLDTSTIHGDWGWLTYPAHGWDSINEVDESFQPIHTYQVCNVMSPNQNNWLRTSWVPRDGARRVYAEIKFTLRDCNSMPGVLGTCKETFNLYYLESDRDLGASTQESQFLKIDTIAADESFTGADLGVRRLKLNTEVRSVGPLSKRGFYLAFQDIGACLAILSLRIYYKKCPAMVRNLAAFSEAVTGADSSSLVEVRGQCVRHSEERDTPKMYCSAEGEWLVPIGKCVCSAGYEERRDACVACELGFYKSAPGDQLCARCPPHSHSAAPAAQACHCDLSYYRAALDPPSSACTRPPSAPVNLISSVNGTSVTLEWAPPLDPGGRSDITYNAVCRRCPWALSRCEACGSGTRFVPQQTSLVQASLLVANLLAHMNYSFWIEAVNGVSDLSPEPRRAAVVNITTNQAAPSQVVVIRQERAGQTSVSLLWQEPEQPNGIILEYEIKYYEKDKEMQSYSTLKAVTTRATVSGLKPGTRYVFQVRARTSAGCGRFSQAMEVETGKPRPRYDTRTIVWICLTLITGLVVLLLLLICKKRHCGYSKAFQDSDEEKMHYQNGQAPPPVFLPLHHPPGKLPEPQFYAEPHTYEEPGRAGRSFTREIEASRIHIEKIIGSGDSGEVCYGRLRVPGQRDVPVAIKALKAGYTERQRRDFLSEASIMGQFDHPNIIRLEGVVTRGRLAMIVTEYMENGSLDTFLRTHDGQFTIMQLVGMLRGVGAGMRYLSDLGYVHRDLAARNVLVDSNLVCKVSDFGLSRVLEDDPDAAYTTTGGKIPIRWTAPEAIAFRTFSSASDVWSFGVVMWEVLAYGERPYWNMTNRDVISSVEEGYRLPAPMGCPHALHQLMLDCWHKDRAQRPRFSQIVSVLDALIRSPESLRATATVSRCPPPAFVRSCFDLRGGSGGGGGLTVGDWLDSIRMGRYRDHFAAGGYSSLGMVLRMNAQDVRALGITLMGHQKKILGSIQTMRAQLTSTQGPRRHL
Experimental: as §1

Itk(h) = Itk(h) (Homo sapiens, UniProt Q08881); conditions: read-out: percent residual activity of Itk(h)
Experimental: as §1

MELK(h) = MELK(h) (Homo sapiens, UniProt Q14680); conditions: read-out: percent residual activity of MELK(h)
Experimental: as §1

PKG1α(h) = PKG1α(h) (Homo sapiens, UniProt Q13976); conditions: read-out: percent residual activity of PKG1α(h)
Experimental: as §1

PAK5(h) = PAK5(h) (Homo sapiens, UniProt Q9P286); conditions: read-out: percent residual activity of PAK5(h)
PAK5(h), sequence (Q9P286 whole entry): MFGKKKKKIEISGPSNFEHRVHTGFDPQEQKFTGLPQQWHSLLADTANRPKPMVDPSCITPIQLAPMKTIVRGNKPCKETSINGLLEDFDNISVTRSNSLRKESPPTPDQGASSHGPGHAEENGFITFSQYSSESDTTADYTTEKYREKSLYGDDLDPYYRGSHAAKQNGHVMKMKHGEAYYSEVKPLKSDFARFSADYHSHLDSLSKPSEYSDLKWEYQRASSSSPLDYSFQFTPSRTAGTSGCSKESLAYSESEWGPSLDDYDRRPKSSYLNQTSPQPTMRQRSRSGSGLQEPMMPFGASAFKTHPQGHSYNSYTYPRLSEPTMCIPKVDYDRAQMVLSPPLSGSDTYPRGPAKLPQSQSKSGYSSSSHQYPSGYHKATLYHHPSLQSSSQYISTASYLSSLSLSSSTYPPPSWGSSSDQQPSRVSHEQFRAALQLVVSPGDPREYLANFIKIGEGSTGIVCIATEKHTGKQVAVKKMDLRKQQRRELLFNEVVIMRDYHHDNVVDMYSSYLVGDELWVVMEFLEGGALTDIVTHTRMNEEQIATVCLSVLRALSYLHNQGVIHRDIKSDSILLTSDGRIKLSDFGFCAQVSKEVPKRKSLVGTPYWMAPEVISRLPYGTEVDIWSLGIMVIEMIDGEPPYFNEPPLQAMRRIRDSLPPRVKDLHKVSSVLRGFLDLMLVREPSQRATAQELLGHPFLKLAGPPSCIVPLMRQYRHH
Experimental: as §1

EphA1(h) = EphA1(h) (Homo sapiens, UniProt P21709); conditions: read-out: percent residual activity of EphA1(h)
Experimental: as §1

Pim-2(h) = Pim-2(h) (Homo sapiens, UniProt Q9P1W9); conditions: read-out: percent residual activity of Pim-2(h)
Pim-2(h), sequence (Q9P1W9 whole entry): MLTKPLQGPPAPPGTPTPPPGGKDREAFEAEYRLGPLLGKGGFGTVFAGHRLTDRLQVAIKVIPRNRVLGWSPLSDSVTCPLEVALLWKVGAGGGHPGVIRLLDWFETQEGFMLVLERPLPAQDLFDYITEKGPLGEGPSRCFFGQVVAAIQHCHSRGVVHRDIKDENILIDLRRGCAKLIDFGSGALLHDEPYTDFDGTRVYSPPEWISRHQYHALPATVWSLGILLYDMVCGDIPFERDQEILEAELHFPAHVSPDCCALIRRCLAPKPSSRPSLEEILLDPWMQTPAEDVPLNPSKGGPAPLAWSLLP
Experimental: as §1

PASK(h) = PASK(h) (Homo sapiens, UniProt Q96RG2); conditions: for remaining activity at 2.5 µM: read-out: percent residual activity of PASK(h)
PASK(h), sequence (Q96RG2 whole entry): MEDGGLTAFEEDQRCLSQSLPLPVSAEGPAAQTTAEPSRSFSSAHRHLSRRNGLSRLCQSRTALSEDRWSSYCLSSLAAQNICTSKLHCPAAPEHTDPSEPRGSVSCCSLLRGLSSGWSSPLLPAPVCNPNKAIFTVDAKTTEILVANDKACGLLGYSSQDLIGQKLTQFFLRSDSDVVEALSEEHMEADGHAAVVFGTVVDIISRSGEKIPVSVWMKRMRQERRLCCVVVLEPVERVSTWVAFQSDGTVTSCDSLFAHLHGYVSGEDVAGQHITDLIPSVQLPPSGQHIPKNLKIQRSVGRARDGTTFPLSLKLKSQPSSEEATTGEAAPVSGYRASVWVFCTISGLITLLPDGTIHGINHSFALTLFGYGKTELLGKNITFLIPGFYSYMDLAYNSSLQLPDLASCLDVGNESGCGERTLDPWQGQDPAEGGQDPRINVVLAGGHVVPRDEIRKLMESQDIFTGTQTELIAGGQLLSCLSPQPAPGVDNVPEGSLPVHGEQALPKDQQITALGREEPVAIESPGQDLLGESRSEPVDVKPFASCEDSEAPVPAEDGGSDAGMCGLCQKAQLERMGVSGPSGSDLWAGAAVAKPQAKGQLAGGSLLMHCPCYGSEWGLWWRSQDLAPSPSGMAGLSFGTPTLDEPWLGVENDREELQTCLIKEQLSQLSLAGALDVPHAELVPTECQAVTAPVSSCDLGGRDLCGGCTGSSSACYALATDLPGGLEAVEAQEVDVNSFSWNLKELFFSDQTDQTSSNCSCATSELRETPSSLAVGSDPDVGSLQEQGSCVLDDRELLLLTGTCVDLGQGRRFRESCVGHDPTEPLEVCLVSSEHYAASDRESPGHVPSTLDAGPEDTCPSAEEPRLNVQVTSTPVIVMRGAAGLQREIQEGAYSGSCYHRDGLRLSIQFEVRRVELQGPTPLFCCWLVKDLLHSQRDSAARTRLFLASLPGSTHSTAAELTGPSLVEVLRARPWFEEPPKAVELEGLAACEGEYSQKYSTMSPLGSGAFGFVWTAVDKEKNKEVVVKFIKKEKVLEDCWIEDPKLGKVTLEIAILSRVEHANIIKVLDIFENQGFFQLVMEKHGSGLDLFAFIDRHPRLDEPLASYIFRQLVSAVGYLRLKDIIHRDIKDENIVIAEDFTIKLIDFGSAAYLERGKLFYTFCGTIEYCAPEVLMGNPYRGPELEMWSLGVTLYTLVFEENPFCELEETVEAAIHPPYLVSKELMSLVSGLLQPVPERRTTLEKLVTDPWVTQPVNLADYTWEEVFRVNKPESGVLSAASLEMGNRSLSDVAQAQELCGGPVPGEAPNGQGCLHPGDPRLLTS
Experimental: as §1

Mnk2(h) = Mnk2(h) (Homo sapiens, UniProt Q9HBH9); conditions: read-out: percent residual activity of Mnk2(h)
Experimental: as §1

DRAK1(h) = biological target: T1, DRAK1(h) (Homo sapiens, UniProt Q9UEE5); conditions: for remaining activity at 2.5 µM: read-out: percent residual activity of DRAK1(h)
T1 sequence (Q9UEE5 1-414): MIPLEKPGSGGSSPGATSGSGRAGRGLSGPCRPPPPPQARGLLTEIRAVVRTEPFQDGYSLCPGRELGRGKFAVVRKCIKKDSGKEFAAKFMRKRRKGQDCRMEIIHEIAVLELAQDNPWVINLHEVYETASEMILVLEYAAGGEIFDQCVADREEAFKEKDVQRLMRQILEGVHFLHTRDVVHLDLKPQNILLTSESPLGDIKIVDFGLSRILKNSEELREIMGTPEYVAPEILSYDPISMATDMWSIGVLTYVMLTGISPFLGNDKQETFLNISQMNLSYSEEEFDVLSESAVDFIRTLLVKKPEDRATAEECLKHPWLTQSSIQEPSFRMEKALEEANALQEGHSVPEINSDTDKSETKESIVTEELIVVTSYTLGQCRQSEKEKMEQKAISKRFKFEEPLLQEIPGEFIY
Experimental: as §1

Mer(h) = Mer(h) (Homo sapiens, UniProt Q12866); conditions: read-out: percent residual activity of Mer(h)
Experimental: as §1

WNK3(h) = WNK3(h) (Homo sapiens, UniProt Q9BYP7); conditions: read-out: percent residual activity of WNK3(h)
Experimental: as §1

SRPK2(h), sequence (P78362 whole entry): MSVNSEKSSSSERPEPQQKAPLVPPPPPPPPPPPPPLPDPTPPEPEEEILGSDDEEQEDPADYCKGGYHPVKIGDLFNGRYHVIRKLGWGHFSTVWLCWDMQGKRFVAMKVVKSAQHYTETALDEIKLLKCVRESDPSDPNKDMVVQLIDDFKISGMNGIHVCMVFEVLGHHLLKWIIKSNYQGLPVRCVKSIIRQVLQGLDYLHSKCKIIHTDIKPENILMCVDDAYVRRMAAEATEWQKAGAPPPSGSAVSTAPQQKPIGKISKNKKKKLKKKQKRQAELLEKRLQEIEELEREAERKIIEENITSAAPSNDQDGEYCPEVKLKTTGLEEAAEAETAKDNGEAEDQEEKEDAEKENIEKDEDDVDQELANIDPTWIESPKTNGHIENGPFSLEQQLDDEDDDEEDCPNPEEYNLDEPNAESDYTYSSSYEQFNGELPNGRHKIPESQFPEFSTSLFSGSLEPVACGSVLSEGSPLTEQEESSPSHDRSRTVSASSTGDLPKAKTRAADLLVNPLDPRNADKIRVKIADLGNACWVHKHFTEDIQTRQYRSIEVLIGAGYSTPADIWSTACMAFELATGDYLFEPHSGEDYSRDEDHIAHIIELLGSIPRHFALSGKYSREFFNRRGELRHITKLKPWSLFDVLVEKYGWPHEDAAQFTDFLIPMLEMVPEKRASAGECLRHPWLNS

remaining activity at 2.5 µM (SRPK2(h)) [%]	remaining activity at 2.5 µM (CK1γ3(h)) [%]	remaining activity at 2.5 µM (MLK1(h)) [%]	remaining activity at 2.5 µM (EGFR(T790M, L858R)(h)) [%]	remaining activity at 2.5 µM (PAK3(h)) [%]	remaining activity at 2.5 µM (Rsk4(h)) [%]	remaining activity at 2.5 µM (BrSK2(h)) [%]	remaining activity at 2.5 µM (ARK5(h)) [%]	remaining activity at 2.5 µM (eEF-2K(h)) [%]	remaining activity at 2.5 µM (NEK3(h)) [%]	remaining activity at 2.5 µM (FAK(h)) [%]	remaining activity at 2.5 µM (SAPK2a(T106M)(h)) [%]	remaining activity at 2.5 µM (EphA8(h)) [%]	remaining activity at 2.5 µM (Itk(h)) [%]	remaining activity at 2.5 µM (MELK(h)) [%]	remaining activity at 2.5 µM (PKG1α(h)) [%]	remaining activity at 2.5 µM (PAK5(h)) [%]	remaining activity at 2.5 µM (EphA1(h)) [%]	remaining activity at 2.5 µM (Pim-2(h)) [%]	remaining activity at 2.5 µM (PASK(h)) [%]	SMILES	further results
88	103	85	93	88	69	96	79	96	94	94	94	100	117	40	57	103	69	77	10	CN1CCCC1CCNC(=O)c1cn2c3c(c(N4CCC(c5cnccn5)C4)c(F)cc3c1=O)Oc1cc3ccccc3cc1-2 (centres unmarked) [Compound A-1]	inhibition at 2.5 µM (PASK(h)): > 80%; remaining activity at 2.5 µM (Mnk2(h)): 98%; inhibition at 2.5 µM (DRAK1(h)): > 80%; remaining activity at 2.5 µM (DRAK1(h)): 11%; remaining activity at 2.5 µM (Mer(h)): 111%; remaining activity at 2.5 µM (WNK3(h)): 98%
88	114	86	99	91	94	96	104	98	118	102	99	100	102	94	101	101	96	110	100	CC(=O)N1CCN(c2ccc3c(=O)c(C(=O)NCCN4CCCC4)c4n(C)c5ccccc5n4c3n2)CC1 [Compound B-1]	remaining activity at 2.5 µM (Mnk2(h)): 115%; remaining activity at 2.5 µM (DRAK1(h)): 117%; remaining activity at 2.5 µM (Mer(h)): 125%; remaining activity at 2.5 µM (WNK3(h)): 120%
